Each block holds one molecule with its values, some of them ahead of it.
What was measured:
[1] = test system: CD11c+ dendritic cells / OTII T cells; assay: Antigen presentation assay, purified CD11c+ dendritic cells and purified OTII T cells; assay type: cell-based, mouse
Method: FIGS. 4A, 4B, 4C and 4D are graphs showing that CD11c^+ dendritic cells are the main antigen presenting cells presenting 3-1-targeted antigen. […] 1.5×10^4 Splenic CD11c^+ dendritic cells purified from C57BL/6 mice and 3.0×10^4 purified OTII T cells were incubated with OVA (starting concentration 300 μg mL^−1) or (OVA)-3-1 (starting concentration 25 μg mL^−1) in graded doses for eight-four hours with [^3H]thymidine (1 μCi) added for the last twelve hours. […] Purified CD11c^+ dendritic cells and OTII T cells were incubated with (OVA)-3-1 (25 μg mL^−1)±each potential inhibitor (100 μg mL^−1). T cell proliferation was determined as for FIG. 4A. […] CD11c^+ dendritic cells and OTII T cells were incubated with OVA or (OVA)-3-1±lipopolysaccharide ([…]). Also included are all ‘non-dendritic cells’ (macrophages and B cells) obtained during the purification of the dendritic cells. T cell proliferation was determined as described in FIG. 4A. […] Supernatants from cells described in FIG. 4C were collected at forty-eight and seventy-two hours and measured for IFN-γ by ELISA; the values presented are from the seventy-two hour time point. All measurements here were performed in triplicate.
To confirm that the increased T cell proliferation observed with (OVA)-3-1 was due to the selective uptake of this conjugate by dendritic cells and not B cells or macrophages, purified CD11c^+ dendritic cells were prepared from wild-type C57BL/6 mice and the OVA-specific T cells from transgenic OTII mice (see Materials & Methods). The in vitro antigen presentation assays described above were then repeated. […] By comparison, >50-fold more unmodified OVA was required to obtain similar levels of T cell proliferation. When B cells and macrophages were used as antigen-presenting cells in place of purified dendritic cells, the resulting T cell responses were negligible (FIG. 4C), providing strong confirmation that CD11c^+ dendritic cells are the main antigen-presenting cells mediating uptake and presentation of (OVA)-3-1 to OTII T cells.
(§1) Pooled inguinal lymph nodes were dissociated in 10% Fetal Bovine Serum RPMI (supplemented with 2 mM L-glutamine) and either mechanically dissociated between two glass slides or, to improve the overall cell yield, incubated in the presence of collagenase (Boehringer) and EDTA for 25 minutes at 37° C./5% CO2 to dissociate DC-T cell clusters. For antigen presentation assays with whole splenocytes, isolated spleens were injected with collagenase/EDTA, gently teased apart and incubated as described above. Splenocytes were cultured in 96-well round-bottom plates at a density of 3×10^5 cells/0.2 mL. In antigen presentation assays utilizing purified dendritic cells and T cells, dendritic cells were isolated from the spleens of C57BL/6 mice following collagenase/EDTA treatment by labeling the dendritic cells with commercially available magnetic microbeads linked to an anti-CD11c^+ antibody (Miltenyi Biotec, Bergisch Gladbach, Germany) (according to the Miltenyi Biotec protocol) and separating labeled Dendritic cells from non-dendritic cells by application of a magnetic field. Similarly, purified […] T cells were obtained from spleens of OTII transgenic mice using magnetic beads Dynal (Oslo, Norway). Purified dendritic cells and T cells were seeded onto 96-well plates round-bottom Plates at a 1:2 DC:T cell ratio unless stated otherwise in the Figures.

[2] = target: T1, DC-SIGN (Homo sapiens, UniProt Q9NNX6); settings: carbohydrate profiling by another group; cited from earlier work
T1 sequence (Q9NNX6 1-404): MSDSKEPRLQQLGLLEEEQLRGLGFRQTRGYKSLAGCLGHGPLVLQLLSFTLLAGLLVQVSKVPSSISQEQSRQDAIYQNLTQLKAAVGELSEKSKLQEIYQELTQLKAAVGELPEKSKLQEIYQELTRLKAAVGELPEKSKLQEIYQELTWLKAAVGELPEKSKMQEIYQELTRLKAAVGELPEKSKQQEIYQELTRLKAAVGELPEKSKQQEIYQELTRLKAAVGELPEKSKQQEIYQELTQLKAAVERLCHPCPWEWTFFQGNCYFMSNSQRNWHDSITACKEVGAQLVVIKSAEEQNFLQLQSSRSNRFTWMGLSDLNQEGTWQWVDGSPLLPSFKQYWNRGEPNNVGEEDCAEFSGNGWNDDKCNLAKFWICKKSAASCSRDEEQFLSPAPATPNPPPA

[3] = test system: OTII (CD4+) T cells in unfractionated splenocytes; assay: Antigen presentation assay, unfractionated OTII splenocytes, [3H]thymidine T cell proliferation; assay type: cell-based, mouse; settings: OTII splenocytes
Method: FIG. 2B is a graph showing that oligosaccharide modification of OVA elicits stronger presentation to OTII T cells than unmodified OVA. Unfractionated OTII splenocytes (3×10^5/well) were incubated with graded doses of OVA or oligosaccharide-modified OVA for eighty-four hours with [^3H]thymidine (1 μCi) added for the last 12 hours. Thereafter [^3H]thymidine incorporation levels were measured and plotted. FIG. 2C is a graph showing that observed enhancements in antigen presentation of (OVA)-3-1 to T cells is carbohydrate dependent. Splenocytes were incubated with antigen as in (B)±(BSA)-3-1 (10 μg mL^−1). In cases where (OVA)-3-1 was added to OVA wells to assess the possibility of direct activation of T cells (see text), (OVA)-3-1 was present at 50 ng mL^−1; incubations were performed for seventy-two hours with [^3H]thymidine (1 μCi) added for the last 12 hours. FIG. 2D is a graph showing that the receptor mediated uptake of (OVA)-3-1 has a different binding profile than that observed for DC-SIGN. Unfractionated splenocytes were incubated with OVA or (OVA)-3-1±mBSA or Lewis^x-BSA (each at 100 μg mL^−1). Incubations were performed for seventy-two hours with [^3H]thymidine (1 μCi) added for the last twelve hours. All values reported are the mean of triplicate measurements.
The ability of these conjugates to enhance antigen uptake by dendritic cells was assessed in comparison to unmodified OVA by incubating graded doses of conjugate and OVA with unfractionated splenocytes (containing T cells, B cells, dendritic cells, macrophages) isolated from OTII (CD4^+) transgenic mice. The ability of dendritic cells to present antigenic peptides derived from targeted proteins was measured as a function of T cell proliferation in response to those presented peptides. T cell proliferation is quantified by [^3H]thymidine incorporation during cellular division.
as §1

[4] = target: T2, (OVA)-3-1, ovalbumin conjugated to the synthetic high-mannose nonasaccharide 3-1 (fluorophore-labeled in the … (UniProt P01012 2-386, average of three saccharides of structure 3-1 per molecule of OVA, coupled through the Sulfo-SMCC maleimide crosslinker to the thiol-bearing linker of the saccharide (sites not given); fluorophore …); assay: binding and internalization of fluorophore-labeled (OVA)-3-1 on a cell line stably expressing CIRE
T2 construct: Neoglycoprotein; also called fluorophore-labeled (OVA)-3-1; carbohydrate-OVA conjugate
T2 sequence (looked up): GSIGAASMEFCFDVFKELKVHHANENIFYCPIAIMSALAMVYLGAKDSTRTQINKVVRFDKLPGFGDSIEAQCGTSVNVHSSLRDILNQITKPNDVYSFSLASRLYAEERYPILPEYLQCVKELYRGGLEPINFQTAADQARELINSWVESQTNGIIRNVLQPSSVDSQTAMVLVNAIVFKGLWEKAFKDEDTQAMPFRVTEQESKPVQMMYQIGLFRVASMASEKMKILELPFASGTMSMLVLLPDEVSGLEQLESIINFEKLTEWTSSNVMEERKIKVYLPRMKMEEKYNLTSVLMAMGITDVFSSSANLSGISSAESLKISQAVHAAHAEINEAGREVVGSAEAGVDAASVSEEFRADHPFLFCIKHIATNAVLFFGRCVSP
Method: (§2) To identify the receptor mediating uptake of the oligosaccharides employed herein, the murine DC-SIGN homolog CIRE[10] was analyzed as a potential receptor; a cell line stably expressing this lectin was used to assay for binding and internalization of fluorophore-labeled 3-1 and fluorophore-labeled (OVA)-3-1. […] The receptor may be identified biochemically, for example, by cross-linking it to bound (OVA)-3-1 and immunoprecipitating the complex with polyclonal sera raised against ovalbumin. Identification of the receptor would enable the determination of its human homolog.

[5] = target: T3, CIRE (Mus musculus, UniProt Q91ZX1); assay: Binding and internalization by a cell line stably expressing CIRE; assay type: cell-based, murine
T3 construct: expressed in transfected cells
T3 sequence (Q91ZX1 1-238): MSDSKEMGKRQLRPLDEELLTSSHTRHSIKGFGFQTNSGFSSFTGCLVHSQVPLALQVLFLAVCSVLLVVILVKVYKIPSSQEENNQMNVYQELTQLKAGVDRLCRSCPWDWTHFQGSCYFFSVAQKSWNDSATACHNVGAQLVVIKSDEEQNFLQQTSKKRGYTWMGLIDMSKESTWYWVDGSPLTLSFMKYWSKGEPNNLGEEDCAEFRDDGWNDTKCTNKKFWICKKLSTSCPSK
Method: as §2, with “CIRE^10” for “CIRE[10]”

[6] = (OVA)-3-1 25 μg mL^−1, inhibitor 100 μg mL^−1

Molecule: invertase: high-mannose-bearing glycoprotein [reference compound]
- reduction (inhibition) of (OVA)-3-1 presentation [1, 6]: 18%
- concentration giving inhibition of (OVA)-3-1 presentation ([1]; similar level of inhibition as mannose): 0.5 µM

Molecule: CC(=O)N[C@H]1C(O)O[C@H](CO)[C@@H](O[C@@H]2O[C@H](CO)[C@H](O)[C@H](O)[C@H]2O)[C@@H]1O[C@@H]1O[C@@H](C)[C@@H](O)[C@@H](O)[C@@H]1O (stereo partly drawn) [Lewis^x, reference compound]
- recognition by DC-SIGN [2]: can recognize
- inhibitory effect on (OVA)-3-1 presentation by dendritic cells [1, 6]: marginal effects

Molecule: mannan [reference compound]
- reduction (inhibition) of (OVA)-3-1 presentation [1, 6]: 31%

Molecule: bovine serum albumin [BSA, reference compound]
- effect of co-incubated protein on (OVA)-3-1 uptake / OTII proliferation ([3]; (BSA)-3-1 10 μg mL^−1, 72 h): did not affect

- binding result [4]: no binding
B1: CIRE, murine DC-SIGN homolog (receptor)
chain: T3 sequence (Q91ZX1 1-238)

B2: (OVA)-3-7: ovalbumin conjugate of monosaccharide galactose 3-7 (conjugate, UniProt P01012 2-386, looked up)
Ovalbumin: T2 sequence (looked up)
modifications: carbohydrate conjugate
- enhancement of antigen uptake and presentation to T cells (T cell proliferation) compared to unmodified OVA ([3]; graded doses): did not promote increased presentation at all

- binding and internalization by CIRE-expressing cell line [5]: did not reveal any interactions
B3: fluorophore-labeled (OVA)-3-1: fluorophore-labeled (OVA)-3-1 (conjugate)
chain: T2 sequence (looked up)

Source: US8273357B2, “Antigen-carbohydrate conjugates” (Massachusetts Institute of Technology, priority 2004, dated 2012)
